Data as given in US5942532A, “2-substituted phenyl-benzimidazole antibacterial agents” (Ortho Pharmaceutical Corporation, priority 1997, dated 1999).
pIC50: −log10 of the molar value.

Each compound was assayed against T1, Kinase A and Spo0F (Bacillus subtilis, UniProt P16497) (assay: Autophosphorylation of Kinase A and Transphosphorylation of Spo0F Assay (HPK in vitro assay)). Conditions: Table 1, KinA/Spo0F phosphorylation, in µM.
T1 construct: made in house; host or cells: recombinant E. coli
T1 sequence (P16497 1-606): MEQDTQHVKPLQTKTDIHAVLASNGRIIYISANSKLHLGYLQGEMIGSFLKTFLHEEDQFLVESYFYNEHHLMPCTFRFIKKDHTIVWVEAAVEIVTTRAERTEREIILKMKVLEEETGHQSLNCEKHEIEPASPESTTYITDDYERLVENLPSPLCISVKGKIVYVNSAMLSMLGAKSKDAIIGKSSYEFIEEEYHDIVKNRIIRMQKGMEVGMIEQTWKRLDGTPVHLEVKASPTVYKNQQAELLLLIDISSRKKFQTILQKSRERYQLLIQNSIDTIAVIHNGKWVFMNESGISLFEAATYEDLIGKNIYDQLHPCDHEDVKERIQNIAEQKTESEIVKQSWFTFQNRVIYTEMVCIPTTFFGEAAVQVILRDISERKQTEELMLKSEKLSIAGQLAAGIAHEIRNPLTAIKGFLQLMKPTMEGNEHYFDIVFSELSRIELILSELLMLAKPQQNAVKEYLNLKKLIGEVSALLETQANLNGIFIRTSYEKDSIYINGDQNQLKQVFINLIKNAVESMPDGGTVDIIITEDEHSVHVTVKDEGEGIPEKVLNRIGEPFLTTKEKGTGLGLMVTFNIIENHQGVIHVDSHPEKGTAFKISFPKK
Assay type: biochemical
Protocol: Autophosphorylation of Kinase A and Transphosphorylation of Spo0F Assay
To study the effect of the compounds of the present invention on the signal transduction process in bacteria, the inhibiting effect of the compounds on the sporulation operon proteins Kinase A and Spo0F was examined. Specifically, the inhibition of autophosphorylation of Kinase A and the transphosphorylation of Spo0F was determined in the following assays. The Spo0F response regulator is the primary substrate for phosphorylation by the protein kinase, Kin A, involved in the sporulation process in bacteria. See D. Burbulys, K. A. Trach, J. A. Hoch, Cell, 64, 545-552 (1991). Spo0F and KinA were prepared from recombinant E. coli overexpressing the proteins (J. Cavanagh et al, Amino Acids, 6, 131-140 (1994) and references therein).
The following stock reagents were either prepared and used promptly or stored at the indicated temperature:
8×Salts: 2 M KCl (5 mL), 1 M MgCl2 (800 mL), 1 M CaCl2 (100 mL), 10 mg/mL phenylmethylsulfonyl fluoride (200 mL), 1 M dithioreitol (50 mL), 0.25 M Na2 EDTA (32 mL) and H2 O 3.82 mL (-20° C.)
5×Loading Dye: 0.5M TRIS-HCl, pH 6.8 (7.5 mL), 10% SDS (2 mL) 0.1% bromophenol blue (0.5 mL), 100% glycerol (3 mL) and 12.5 M 2-mercaptoethanol (0.3 mL)
1-1.3 mg/mL KinA: 15 mM TRIS-HCl, pH 8.0, 6 mM KCl; 4 mM 2-mercaptoethanol;40% glycerol (-20° C.)
1 mg/mL Spo0F: 17.5 mM TRIS-HCl, pH 8.0; 0.7 mM KCl; 0.7 mM MgCl2; 0.7 mM CaCl2; 5 mM 2-mercaptoethanol; 30% glycerol (-20° C.)
5% Stacking Gel: 40% 29:1 acrylamide:bis acrylamide (1.25 mL), 0.5 M TRIS-HCl, pH 6.8 (2.5 mL), 10% SDS (0.1 mL), D-H2 O (6.15 mL) 10% ammonium persulfate (100 mL) and TEMED (25 mL)
SDS Running Buffer: TRIS-BASE (3.02 g), glycine (14.4 g), SDS (1 g), D-H2 O (to 1 L)
The reaction mixture was prepared from 8×Salts (87 μL), 1M TRIS, pH 8 (118 μL), 50% glycerol (63 μL), Spo0F (14.1 μL) and KinA (7.0 μL). Microcentrifuge tubes were charged with the reaction mixture (18.5 μL) and a 1.0 mM solution of the test compound in 5% DMSO (18.5 μL), and incubated for 15 min on ice. 100 mM ATP solution (3.0 μl, containing 625 μCi [^32 P]ATP) was added, and the mixture left for 10 minutes at room temperature. The reaction was quenched with 5× loading dye (10 μL per tube) and the samples were loaded on a prepared 5% Stacking Gel, or stored on dry ice until ready for use. The prepared wells were filled with SDS Running Buffer, samples were loaded into the wells, and 80 volts were applied to the gel until the dye front reached the bottom of the stacking gel. The voltage was then increased to 250 volts until electrophoresis was complete. Radioactive bands in the gel corresponding to phosphorylated KinA and Spo0F were imaged and quantitated with a phosphoimager.
If either enzyme was inhibited (as evidenced by the absence of labelled protein in the developed gel), an IC50 was calculated by running the assay with a range of inhibitor concentrations from 1 to 500 μM. After electrophoresis of the reaction mixtures, percent inhibition was determined by measuring the concentration of radioactive phosphorus with a phosphoimager and calculating the values using a software program (BioRad Molecular Analyst).

Row | SMILES | IC50
1 | N=C(N)c1ccc2nc(-c3ccc(-c4ccccc4)cc3)[nH]c2c1 [Example 2] | 86
2 | N=C(N)c1ccc2nc(-c3ccc(C(F)(F)F)cc3)[nH]c2c1 [Example 3] | 169
3 | N=C(N)c1ccc2nc(-c3ccc(N(c4ccccc4)c4ccccc4)cc3)[nH]c2c1 [Example 5] | 17.4
4 | N=C(N)c1ccc2nc(-c3cc(OCc4ccccc4)cc(OCc4ccccc4)c3)[nH]c2c1 [Example 6] | 15.9
5 | N=C(N)c1ccc2nc(-c3cc(C(F)(F)F)cc(C(F)(F)F)c3)[nH]c2c1 [Example 7] | 30.8
6 | CCC(C)(C)c1ccc(-c2nc3ccc(C(=N)N)cc3[nH]2)cc1 [Example 8] | 37.6
7 | CC(C)(C)c1cc(-c2nc3ccc(C(=N)N)cc3[nH]2)cc(C(C)(C)C)c1O [Example 9] | 75.9
8 | CC(C)(C)c1ccc(-c2nc3ccc(C(=N)N)cc3[nH]2)cc1 [Example 10] | 70.6
9 | N=C(N)c1ccc2nc(-c3ccc(OCc4ccc([N+](=O)[O-])cc4)cc3)[nH]c2c1 [Example 11] | 19.4
10 | CCCCCCCCCCOc1ccc(-c2nc3ccc(C(=N)N)cc3[nH]2)cc1OCCCCCCCCCC [Example 12] | 8.3
11 | N=C(N)c1ccc2nc(-c3ccc(C=Cc4ccccc4)cc3)[nH]c2c1 [Example 13] | 21.5
12 | CCCCN(CCCC)c1ccc(-c2nc3ccc(C(=N)N)cc3[nH]2)cc1 [Example 14] | 35.5
13 | N=C(N)c1ccc2nc(-c3ccc(OCc4ccccc4)cc3)[nH]c2c1 [Example 15] | 60.8
14 | N=C(N)c1ccc2nc(-c3ccc(OCc4ccccc4)c(OCc4ccccc4)c3)[nH]c2c1 [Example 16] | 50.7
15 | N=C(N)c1ccc2nc(-c3ccc(F)cc3)[nH]c2c1 [Example 17] | 480
16 | N=C(N)c1ccc2nc(-c3cc(I)c(O)c(I)c3)[nH]c2c1 [Example 18] | 254
17 | N=C(N)c1ccc2nc(-c3cc(Cl)cc(Cl)c3)[nH]c2c1 [Example 19] | 100
18 | CC(C)(C)c1cc(-c2nc3ccc(C(=N)N)cc3[nH]2)cc(C(C)(C)C)c1 [Example 20] | 19
19 | N=C(N)c1ccc2nc(-c3cc(-c4ccccc4)cc(-c4ccccc4)c3)[nH]c2c1 [Example 21] | 31
20 | N=C(N)c1ccc2nc(-c3ccc(NCc4ccccc4)cc3)[nH]c2c1 [Example 22] | 222
21 | CC(C)(C)c1cc(-c2nc3ccc(C(=N)N)cc3[nH]2)ccc1O [Example 23] | 22
22 | N#CCCN(CCC#N)c1ccc(-c2nc3ccc(C(=N)N)cc3[nH]2)cc1 [Example 25] | 35.6
23 | N=C(N)c1ccc2nc(-c3ccc(N(Cc4ccccc4)Cc4ccccc4)cc3)[nH]c2c1 [Example 26] | 17
24 | COc1cc(OC)c(-c2nc3ccc(C(=N)N)cc3[nH]2)cc1Br [Example 28] | 66
25 | CC(C)(C)c1cc(-c2nc3ccc(C(=N)N)cc3[nH]2)c(O)c(C(C)(C)C)c1 [Example 30] | 8.5
26 | N=C(N)c1ccc2nc(-c3cc(I)cc(I)c3O)[nH]c2c1 [Example 31] | 30.8
27 | N=C(N)c1ccc2nc(-c3cc([N+](=O)[O-])cc([N+](=O)[O-])c3O)[nH]c2c1 [Example 33] | 74.7
28 | CCN(CC)c1ccc(-c2nc3ccc(C(=N)N)cc3[nH]2)c(O)c1 [Example 38] | 51
29 | N=C(N)c1ccc2nc(-c3ccc(Oc4c([N+](=O)[O-])cc(C(F)(F)F)cc4[N+](=O)[O-])cc3)[nH]c2c1 [Example 45] | 28

The remaining lines, values ahead:

Row | IC50 | SMILES
30 | 51.1 | N=C(N)c1ccc2nc(-c3cc(Br)cc(Br)c3O)[nH]c2c1 [Example 32]
31 | 4 | CC(C)(C)c1cccc(-c2nc3ccc(C(=N)N)cc3[nH]2)c1O [Example 34]
32 | 155 | N=C(N)c1ccc2nc(-c3cc(Cl)cc(Cl)c3O)[nH]c2c1 [Example 36]
33 | 171 | COc1cc(Br)c(O)c(-c2nc3ccc(C(=N)N)cc3[nH]2)c1 [Example 37]
34 | 23 | N=C(N)c1ccc2nc(-c3cc(-c4ccccc4)cc(-c4ccccc4)c3O)[nH]c2c1 [Example 39]
35 | 199 | N=C(N)c1ccc2nc(-c3cc([N+](=O)[O-])cc(Br)c3O)[nH]c2c1 [Example 40]
36 | 199 | CC(C)(C)c1cc(-c2nc3ccc(C(=N)N)cc3[nH]2)c(OCC(=O)O)c(C(C)(C)C)c1 [Example 42]
37 | 40.2 | CC(C)(C)c1csc(-c2ccc(-c3nc4ccc(C(=N)N)cc4[nH]3)cc2)n1 [Example 43]

Same assay, conditions: Table 1, KinA/Spo0F phosphorylation, read-out: IC50

Row | SMILES | pIC50
38 | CC(C)c1ccc(-c2nc3ccc(C(=N)N)cc3[nH]2)cc1 [Example 4] | 3.66
39 | N=C(N)c1ccc2nc(-c3ccccc3O)[nH]c2c1 [Example 27] | 3.33
40 | COc1c(-c2nc3ccc(C(=N)N)cc3[nH]2)cc(C(C)(C)C)cc1C(C)(C)C [Example 29] | 4.12
41 | CC(C)(C)c1ccc(O)c(-c2nc3ccc(C(=N)N)cc3[nH]2)c1 [Example 35] | 4.19

Same assay, conditions: Table 2, KinA/Spo0F phosphorylation, in µM

Row | IC50 | SMILES
42 | 44 | Cn1c(-c2ccc(Oc3ccccc3)cc2)nc2ccc(C(=N)N)cc21 [Example 46]
43 | 131 | N=C(N)c1ccc(Oc2ccc(-c3nc4ccc(C(=N)N)cc4[nH]3)cc2)cc1 [Example 47]
44 | 29.2 | N=C(N)c1ccc2nc(-c3ccc(Oc4ccc(Cl)cc4[N+](=O)[O-])cc3)[nH]c2c1 [Example 49]
45 | 31.7 | N=C(N)c1ccc2nc(-c3ccc(Oc4ccc([N+](=O)[O-])cc4)cc3)[nH]c2c1 [Example 50]
46 | 140.6 | N=C(N)c1ccc2nc(-c3ccc(Oc4ccc(N)cc4)cc3)[nH]c2c1 [Example 51]
47 | 56 | CCOC(=O)c1ccc(Oc2ccc(-c3nc4ccc(C(=N)N)cc4[nH]3)cc2)cc1 [Example 52]
48 | 28.7 | COc1cc(Oc2ccc(-c3nc4ccc(C(=N)N)cc4[nH]3)cc2)cc(OC)c1OC [Example 53]
49 | 17.7 | COc1ccc(Oc2ccc(-c3nc4ccc(C(=N)N)cc4[nH]3)cc2)cc1 [Example 54]
50 | 59.2 | COc1cc(OC)cc(Oc2ccc(-c3nc4ccc(C(=N)N)cc4[nH]3)cc2)c1 [Example 55]
51 | 66.5 | CC(C)(C)c1ccc(Oc2ccc(-c3nc4ccc(C(=N)N)cc4[nH]3)cc2)cc1 [Example 56]
52 | 31.5 | N=C(N)c1ccc2[nH]c(-c3ccc(Oc4ccc(N)c(N)c4)cc3)nc2c1 [Example 58]
53 | 13.9 | N=C(N)c1ccc2[nH]c(-c3ccc(Oc4ccc(Cl)cc4)cc3)nc2c1 [Example 59]

Row | SMILES | IC50
54 | N=C(N)c1ccc2nc(-c3ccc(Oc4ccc([N+](=O)[O-])c([N+](=O)[O-])c4)cc3)[nH]c2c1 [Example 57] | 31.6

Same assay, conditions: Table 2, KinA/Spo0F phosphorylation, read-out: IC50

Row | SMILES | pIC50
55 | N=C(N)c1ccc2nc(-c3ccc(Oc4ccccc4)cc3)[nH]c2c1 [Example 48] | 4.38
